Measurements taken from patent US10039283B2, “Substituted pyrazolyl-nicotin(thio)amide derivatives and their use as fungicides” (BAYER CROPSCIENCE AKTIENGESELLSCHAFT, priority 2014, dated 2018).

assay: Log P by HPLC on reversed phase, method [a], acidic range (0.1% formic acid); type: physicochemical; conditions: LC-UV, 0.1% formic acid in water and acetonitrile

| SMILES | LogP |
| --- | --- |
| O=C(Nc1cnn(-c2ccccc2Cl)c1-c1ccc(Cl)cc1)c1cccnc1C(F)F [Example 80] | 2.90^[a] |
| CCCc1c(NC(=O)c2cccnc2C(F)F)cnn1-c1ccccc1 [Example 121] | 2.28^[a] |
| O=C(Nc1cnn(-c2ccc(Br)cc2)c1C(F)(F)F)c1cccnc1CF [Example 248] | 2.80^[a] |
| Cc1c(NC(=O)c2cccnc2C(F)F)cnn1-c1ccc(OC(F)(F)F)cc1 [Example 242] | 2.64^[a] |
| O=C(Nc1cnn(-c2cc(Cl)cc(Cl)c2)c1Br)c1cccnc1C(F)F [Example 203] | 3.23^[a] |
| O=C(Nc1cnn(-c2ccccc2F)c1-c1cccc(Cl)c1)c1cccnc1C(F)F [Example 57] | 2.75^[a] |
| Cc1cnc(C(F)F)c(C(=O)Nc2cnn(Cc3ccccc3)c2C(F)(F)F)c1 [Example 170] | 2.95^[a] |
| CCCOc1c(NC(=O)c2cccnc2C(F)F)cnn1-c1ccc(Cl)cc1 [Example 227] | 2.95^[a] |
| Cc1cnc(C(F)F)c(C(=O)Nc2cnn(C(C)C)c2C2CC2)c1 [Example 42] | 1.95^[a] |
| CC(C)c1c(NC(=O)c2cccnc2C(F)F)cnn1-c1cccc(Cl)c1 [Example 103] | 2.60^[a] |
| COc1c(NC(=O)c2cccnc2C(F)F)cnn1-c1ccc(Cl)cc1 [Example 218] | 2.32^[a] |
| O=C(Nc1cnn(-c2ccccc2Cl)c1-c1cccc(F)c1)c1cccnc1C(F)F [Example 82] | 2.66^[a] |
| COc1c(NC(=O)c2cccnc2C(F)F)cnn1-c1cc(Cl)cc(Cl)c1 [Example 216] | 3.02^[a] |
| O=C(Nc1cnn(-c2ccc(Cl)cc2)c1Br)c1cccnc1C(F)F [Example 220] | 2.50^[a] |
| O=C(Nc1cnn(-c2cccc(C(F)(F)F)c2)c1C(F)F)c1cccnc1C(F)F [Example 30] | 2.88^[a] |
| CCc1c(NC(=O)c2cccnc2C(F)F)cnn1-c1cccc(C)c1 [Example 100] | 2.34^[a] |
| O=C(Nc1cnn(-c2cc(Cl)cc(Cl)c2)c1C(F)(F)F)c1ccc(Cl)nc1C(F)F [Example 161] | 4.23^[a] |
| O=C(Nc1cnn(-c2ccc(Br)cc2)c1-c1cccc(F)c1)c1cccnc1C(F)F [Example 201] | 3.19^[a] |
| O=C(Nc1cnn(-c2cccc(F)c2)c1-c1cccc(Cl)c1)c1cccnc1C(F)F [Example 58] | 2.98^[a] |
| Cc1c(NC(=O)c2ccc(Cl)nc2C(F)F)cnn1-c1ccccc1Cl [Example 70] | 2.56^[a] |
| O=C(Nc1cnn(-c2ccccc2C(F)(F)F)c1-c1cccc(Cl)c1)c1cccnc1C(F)F [Example 78] | 3.06^[a] |

| SMILES | LogP |
| --- | --- |
| O=C(Nc1cnn(-c2ccc(Cl)cc2)c1-c1ccccc1)c1cccnc1C(F)F [Example 198] | 2.99^[a] |
| O=C(Nc1cnn(-c2ccc(C(F)(F)F)cc2)c1-c1cccc(Cl)c1)c1cccnc1C(F)F [Example 55] | 3.58^[a] |
| CCc1c(NC(=O)c2cccnc2C(F)F)cnn1C(CC)CC [Example 127] | 2.20^[a] |
| CC(C)n1ncc(NC(=O)c2cccnc2C(F)F)c1C1CC1 [Example 14] | 1.68^[a] |
| O=C(Nc1cnn(-c2ccccc2Cl)c1-c1ccc(F)cc1)c1cccnc1C(F)F [Example 83] | 2.66^[a] |
| COc1ccc(-n2ncc(NC(=O)c3cccnc3C(F)F)c2Br)cc1 [Example 193] | 2.09^[a] |
| Cc1cnc(C(F)F)c(C(=O)Nc2cnn(-c3ccccc3Cl)c2C)c1 [Example 69] | 2.17^[a] |
| Cc1cccc(-n2ncc(NC(=O)c3cccnc3C(F)F)c2C)c1 [Example 48] | 2.11^[a] |
| CC(C)(C)c1ccc(-n2ncc(NC(=O)c3cccnc3C(F)F)c2C(F)(F)F)cc1 [Example 231] | 3.79^[a] |
| O=C(Nc1cnn(-c2ccc(Cl)c(Cl)c2)c1C(F)(F)F)c1cccnc1C(F)F [Example 96] | 3.51^[a] |
| O=C(Nc1cnn(-c2ccc(Cl)cc2Cl)c1C(F)(F)F)c1ccc(Br)nc1C(F)F [Example 172] | 3.96^[a] |
| O=C(Nc1cnn(-c2ccc(Cl)cc2)c1OCC(F)(F)F)c1cccnc1C(F)F [Example 221] | 2.88^[a] |
| CCc1c(NC(=O)c2cccnc2C(F)F)cnn1CCC(C)C [Example 124] | 2.32^[a] |
| Cc1c(NC(=O)c2cccnc2C(F)F)cnn1-c1ccc(Br)cc1 [Example 134] | 2.34^[a] |
| Cc1ccc(-n2ncc(NC(=O)c3cc(C)cnc3C(F)F)c2C(C)C)cc1 [Example 208] | 2.73^[a] |
| O=C(Nc1cnn(Cc2ccccc2)c1C(F)(F)F)c1ccc(Cl)nc1C(F)F [Example 173] | 3.33^[a] |
| O=C(Nc1cnn(-c2cccc(Cl)c2)c1Br)c1cccnc1C(F)F [Example 153] | 2.54^[a] |
| COc1cnc(C(F)F)c(C(=O)Nc2cnn(-c3ccc(Cl)cc3Cl)c2C(F)(F)F)c1 [Example 168] | 3.53^[a] |
| Cc1nn(-c2ccccc2)c(C)c1NC(=O)c1cccnc1C(F)F [Example 17] | 1.81^[a] |
| CSc1ccc(-n2ncc(NC(=O)c3cccnc3C(F)F)c2C(F)(F)F)cc1 [Example 246] | 2.94^[a] |
| O=C(Nc1cnn(-c2ccccc2Cl)c1Cl)c1cccnc1C(F)F [Example 191] | 2.17^[a] |

| SMILES | LogP |
| --- | --- |
| Cc1c(NC(=O)c2ccc(Cl)nc2C(F)F)cnn1C1CCCC1 [Example 41] | 2.46^[a] |
| Cc1cccc(-n2ncc(NC(=O)c3cc(C)cnc3C(F)F)c2C(C)C)c1 [Example 238] | 2.75^[a] |
| CCOc1ccc(-n2ncc(NC(=O)c3cccnc3C(F)F)c2C(F)(F)F)cc1 [Example 230] | 2.88^[a] |
| O=C(Nc1cnn(-c2ccccc2Cl)c1-c1cccc(Cl)c1)c1cccnc1C(F)F [Example 81] | 2.88^[a] |
| Cc1cnc(C(F)F)c(C(=O)Nc2cnn(-c3cccc(C(F)(F)F)c3)c2C(F)(F)F)c1 [Example 139] | 3.39^[a] |
| O=C(Nc1cnn(-c2ccc(SC(F)(F)F)cc2)c1C(F)(F)F)c1cccnc1C(F)F [Example 243] | 3.68^[a] |
| O=C(Nc1cnn(-c2ccc(Cl)cc2)c1SC(F)(F)F)c1cccnc1C(F)F [Example 224] | 3.25^[a] |
| O=C(Nc1cnn(-c2ccccc2)c1C(F)(F)F)c1cccnc1C(F)F [Example 9] | 2.53^[a] |
| Cc1nn(-c2cccc(F)c2)c(C)c1NC(=O)c1cccnc1C(F)F [Example 15] | 1.99^[a] |
| CCC(CC)n1ncc(NC(=O)c2ccc(Cl)nc2C(F)F)c1C [Example 39] | 2.51^[a] |
| CCCCn1ncc(NC(=O)c2cccnc2C(F)F)c1C [Example 7] | 1.69^[a] |
| O=C(Nc1cnn(-c2ccc(Oc3ccccc3)cc2)c1C(F)(F)F)c1cccnc1C(F)F [Example 233] | 3.59^[a] |
| Cc1ncccc1C(=O)Nc1cnn(-c2ccc(Cl)cc2)c1C(F)(F)F [Example 237] | 2.12^[a] |
| Cc1cccc(-n2ncc(NC(=O)c3cccnc3C(F)F)c2C(F)(F)F)c1 [Example 86] | 2.73^[a] |
| Cc1cnc(C(F)F)c(C(=O)Nc2cnn(-c3ccc(Cl)cc3)c2C)c1 [Example 71] | 2.49^[a] |
| O=C(Nc1cnn(-c2cccc(C(F)F)c2)c1C(F)(F)F)c1cccnc1C(F)F [Example 64] | 2.71^[a] |
| O=C(Nc1cnn(-c2ccccc2C(F)(F)F)c1C(F)(F)F)c1cccnc1C(F)F [Example 49] | 2.82^[a] |
| O=C(Nc1cnn(-c2cccc(Cl)c2Cl)c1C(F)(F)F)c1ccc(Cl)nc1C(F)F [Example 163] | 3.71^[a] |
| CCc1c(NC(=O)c2cccnc2C(F)F)cnn1-c1ccccc1C [Example 104] | 2.18^[a] |
| O=C(Nc1cnn(-c2ccc(Br)cc2)c1-c1cccc(Cl)c1)c1cccnc1C(F)F [Example 199] | 3.46^[a] |
| Cc1cnc(C(F)F)c(C(=O)Nc2cnn(-c3ccccc3Cl)c2C(C)C)c1 [Example 209] | 2.59^[a] |

| SMILES | LogP |
| --- | --- |
| CC(C)c1ccc(-n2ncc(NC(=O)c3ccc(Cl)nc3C(F)F)c2C(F)(F)F)cc1 [Example 159] | 4.13^[a] |
| O=C(Nc1cnn(-c2ccc(C(F)(F)F)cc2)c1-c1ccccc1)c1cccnc1C(F)F [Example 186] | 3.24^[a] |
| O=C(Nc1cnn(-c2cccc(Cl)c2)c1C(F)F)c1cccnc1C(F)F [Example 24] | 2.69^[a] |
| CCc1c(NC(=O)c2cc(C)cnc2C(F)F)cnn1-c1cccc(C(F)(F)F)c1 [Example 239] | 2.94^[a] |
| O=C(Nc1cnn(-c2cccc(Br)c2)c1C(F)(F)F)c1cccnc1C(F)F [Example 60] | 3.09^[a] |
| O=C(Nc1cnn(-c2cccc(C(F)F)c2)c1C(F)F)c1cccnc1C(F)F [Example 26] | 2.48^[a] |
| Cc1c(NC(=O)c2ccc(Cl)nc2C(F)F)cnn1-c1ccc(Cl)cc1 [Example 72] | 2.86^[a] |
| Cc1cnc(C(F)F)c(C(=O)Nc2cnn(-c3cccc(Cl)c3)c2C(F)(F)F)c1 [Example 138] | 3.25^[a] |
| O=C(Nc1cnn(-c2cc(Cl)ccc2Cl)c1C(F)(F)F)c1cccnc1C(F)F [Example 95] | 3.15^[a] |
| Cc1ccccc1-n1ncc(NC(=O)c2cccnc2C(F)F)c1C(F)(F)F [Example 73] | 2.71^[a] |
| O=C(Nc1cnn(-c2ccc(Br)cc2)c1C(F)(F)F)c1cccnc1C(F)F [Example 63] | 3.13^[a] |
| O=C(Nc1cnn(-c2cc(F)cc(F)c2)c1C(F)(F)F)c1cccnc1C(F)F [Example 61] | 2.88^[a] |
| O=C(Nc1cnn(-c2ccc(OC(F)(F)C(F)F)cc2)c1C(F)(F)F)c1cccnc1C(F)F [Example 247] | 3.19^[a] |
| O=C(Nc1cnn(-c2ccccc2C(F)(F)F)c1-c1cccc(F)c1)c1cccnc1C(F)F [Example 131] | 2.80^[a] |
| CCc1c(NC(=O)c2cccnc2C(F)F)cnn1-c1ccc(C)cc1 [Example 99] | 2.34^[a] |
| Cc1c(NC(=O)c2cccnc2C(F)F)cnn1-c1ccccc1C(F)(F)F [Example 111] | 2.08^[a] |
| O=C(Nc1cnn(-c2ccccc2C(F)(F)F)c1-c1ccc(Cl)cc1)c1cccnc1C(F)F [Example 132] | 3.04^[a] |
| CC(C)n1ncc(NC(=O)c2ccc(Cl)nc2C(F)F)c1C1CC1 [Example 43] | 2.33^[a] |
| CC(C)c1c(NC(=O)c2cccnc2C(F)F)cnn1-c1ccccc1 [Example 120] | 2.15^[a] |
